The structures appear in SMILES notation.

As to `N=C(N)c1cccc(Cn2ccc3ncn(Cc4ccc5ccc(C(=N)N)cc5c4)c3c2=O)c1`, the melting point (usually the temperature of the solid-liquid transition) was greater than 300 °C.

`CN1CC=C(c2c[nH]c3ccc(O)cc23)CC1` gave a melting point of 182 to 185 °C.

With `O=C(CCCC=CCC1C(O)CC(O)C1C=CC(O)CCc1ccccc1)ON1C(=O)c2ccccc2C1=O` (stereo unspecified), the melting point was in the range of 83.2 to 84.5 °C.

For `O=C1c2ccccc2C(=O)N1Cc1cnccn1`, the melting point was in the range of 141 to 143 °C.

For `N#Cc1ccc2c(c1)S(=O)(=O)c1ccc(F)cc1C2=O`, the melting point was 260 °C.

As for `CC1CC(C)CN(S(=O)(=O)c2ccc(Cl)c(C(=O)Cl)c2)C1` (stereo unspecified), the melting point fell in the range of 164 to 166 °C.

Turning to `CC1NC(=O)NN=C1c1ccc(OCC(=O)NCCN2CCN(C(=O)c3ccc(Cl)cc3)CC2)c(Cl)c1` (stereo unspecified), the melting point lay in the range of 186 to 188 °C.

The compound `O=C(O)Cc1cccc2c(=O)cc(-c3c(F)c(F)c(F)c(F)c3F)oc12` had a melting point of 156 to 160 °C.

As to `CNC(=S)NCCS(=O)Cc1nc[nH]c1C` (stereo unspecified), the melting point is 139 to 140 °C.

For the compound `COc1cc(C=O)ccc1OCC(=O)c1cc(C(C)(C)C)c(O)c(C(C)(C)C)c1`, the melting point lay within 99 to 100 °C.

`CCCCCCC(=O)Nc1cccc2c1C(=O)N(C1CCC(=O)NC1=O)C2=O` (stereo unspecified): the melting point lay within 200 to 202 °C.

For the compound `COc1ccc(COc2ccc(CSc3ccc(OCC(=O)O)c4c3CCC4)cc2)cc1`, the melting point fell in the range of 183 to 185 °C.

`COCc1nc2c(OC)ccc(C(O)(Cc3ccncc3)Cc3ccncc3)c2[nH]1` displayed a melting point of 210 °C.

`O=C(O)C(Cl)C1c2c(Cl)c(Cl)c(Cl)c(Cl)c2C(Cl)(Cl)C1(Cl)Cl` (stereo unspecified) had a melting point of 214 to 216 °C.

`O=C(NCC1CCCCCC1)c1cc(-c2ccc(Cl)c(C(=O)O)n2)ccc1Cl` returned a melting point of 189 to 190 °C.

As to `CN(C)c1nc2cc(Cl)c(Cl)cc2n1C1CC(CO)C(O)C1O` (stereo unspecified), the melting point is 190 to 193 °C.

In turn, `Cc1cn(N)c2ccc(OCc3ccccc3)cc12` came in with a melting point of 104 to 106 °C.

As for `Cc1nc(-c2ccc([N+](=O)[O-])cc2)c(-c2ccc([N+](=O)[O-])cc2)[nH]1`, the melting point lay in the range of 230 to 232 °C.

In the case of `CCC(CC)(CO)NC(=S)NC(=O)c1ccccc1`, the melting point lay within 161 to 163 °C.

The compound `CCCCCCCCCCCCS(=O)(=O)CCOc1ccc(C/C=C(\OC(=O)CC)C(F)(F)F)cc1` returned a melting point of 60 to 63 °C.

Regarding `Cc1nnc(-c2ccnc(Nc3ccccn3)c2)o1`, the melting point fell in the range of 196 to 197 °C.

As for `COc1cccc(NC(=O)C(C)(C)C)c1CCO`, the melting point lay in the range of 118 to 120 °C.

`C[C@H](Cn1cnc2c(=O)[nH]c(N)nc21)OCP(=O)(O)O` gave a melting point of 270 to 272 °C.

`COC(=O)c1cn2c(-c3ccc4ccccc4c3)csc2n1`: the melting point was 187 to 188 °C.

In turn, `CC(C)(C)c1cc(SC2(Sc3cc(C(C)(C)C)c(O)c(C(C)(C)C)c3)CCCCCC2)cc(C(C)(C)C)c1O` showed a melting point of 144 to 146 °C.

Consider `CC(C)(C)OC(=O)OCc1ccc(COC(=O)OC(C)(C)C)cc1`, for which the melting point was in the range of 71 to 74 °C.

Compound `CCCCc1nc(Cl)c(CO)n1Cc1ccc(OCc2ccccc2)cc1` showed a melting point of 115 to 116 °C.

`O=c1c2ccc(Cl)cc2n(Cc2ccccc2)n2c(Cl)ccc12` came in with a melting point of 134 to 136 °C.

As to `CCOC(=O)C(C(=O)OCC)C1c2ccccc2C(F)(F)C(F)(F)c2ccccc21`, the melting point lay within 144 to 146 °C.

Consider `CC(C)(CCCC(C(O)C(C)(C)C)n1cncn1)c1ccccc1` (stereo unspecified), for which the melting point was 98 to 99 °C.

In turn, `O=C1Cc2c([nH]c3ccccc23)-c2ncccc2N1` displayed a melting point greater than 330 °C.

For `CCn1c(=O)c2[nH]c(/C=C/c3cccc(Br)c3)nc2n(CC)c1=O`, the melting point was greater than 270 °C.

The compound `CCc1c2n(c3ccccc13)C(=O)C(Cc1nc[nH]c1C)CC2` (stereo unspecified) showed a melting point of 222 to 224 °C.

Compound `Cc1ccc(-c2nc3ccccc3o2)cc1F` registered a melting point of 121 to 122 °C.

Compound `COCCOc1ccc(/C=C/C(=O)O)c(Oc2ccc(C(F)(F)F)cc2Cl)c1` had a melting point of 166 °C.

Consider `Cc1nc(N)nc(N)c1-c1cccc(Cl)c1Cl`, for which the melting point was in the range of 245 to 247 °C.

Consider `O=c1[nH]c(=O)n2c3c(cccc13)S(=O)(=O)c1ccc(C(F)(F)F)cc1-2`, for which the melting point lay within 290 to 293 °C.

For `CCCN1CC(c2ccc(S(C)(=O)=O)cc2)=C(c2ccc(F)cc2)C1=O`, the melting point lay within 120 to 121 °C.

On to `CN(C)n1c(=O)c2ccccc2n(C)c1=O`, for which the melting point was found to be 154 °C.

As to `CCOC1=NS(=O)(=O)N=C1N[C@@H]1c2cc(OC(F)(F)F)ccc2OC(C)(C)[C@H]1O`, the melting point fell in the range of 192 to 194 °C.

Consider `NNC(=O)c1ncc2[nH]c3ccccc3c2n1`, for which the melting point is greater than 340 °C.

Take `Cn1cccc1C(=O)NCCO`: the melting point turned out to be 78.1 °C.

On to `O=C1NC(=O)C(Cc2ccc3nc(Cc4ccc(Cl)cc4)oc3c2)S1` (stereo unspecified), for which the melting point was 220 °C.

Regarding `CC(O)c1ccc(Oc2ccc(NC(=O)Nc3cc(C(C)(C)C)on3)cc2)cc1` (stereo unspecified), the melting point fell in the range of 80 to 85 °C.

Consider `CNc1nnc(S[Si](C)(C)C)s1`, for which the melting point was 80 to 82 °C.

Compound `CCN(CC)C(=O)c1c(-c2ccccc2)[nH]c2ccccc12` gave a melting point of 224 to 226 °C.

The compound `COc1ccc2c(c1)CCC1C2CCC2(C)C(NCCCCCCNc3ccc([N+](=O)[O-])cc3[N+](=O)[O-])CCC12` (stereo unspecified) came in with a melting point of 90 to 92 °C.

For the compound `Cc1ccccc1C=C(C#N)C=O`, the melting point came to 81.5 °C.

As for `COc1cc(CCCn2cncn2)ccc1O`, the melting point was 97 to 98 °C.

For `COc1ccc(-c2nc3ncccc3o2)cc1OC1CCCC1`, the melting point was in the range of 108 to 109 °C.

Consider `CCOC(=O)c1ccc(NC(=O)OC(C)(C)C)cc1`, for which the melting point was 149 to 150 °C.

Compound `O=C(Cc1ccccc1)N1CC2CCC(C1)O2` came in with a melting point of 106 °C.

Regarding `CCn1cc(C(=O)NCc2ccc(Cl)cc2)c(=O)c2cc(CN(C)C[C@@H](O)c3ccccc3)sc21`, the melting point was 100 to 102 °C.

As to `CCCc1ccc(-c2[nH]nc3c2C(=O)c2c(NC(C)=O)cccc2-3)cc1`, the melting point is 269 °C.

For the compound `CCCCOCc1cc(-n2nc(C(N)=O)nc2-c2ccccc2)ccc1Cl`, the melting point is 96 to 98 °C.

`CC1c2ccccc2C=Cn2c1n[nH]c2=O` (stereo unspecified): the melting point fell in the range of 119 to 120 °C.

`CC(CN1CCN(c2ccc(C(=O)O)cc2)CC1)Oc1ccccc1` (stereo unspecified) showed a melting point of 152 to 154 °C.

Consider `COc1ccc(N2CCN(Cc3coc4ccccc34)CC2)cc1`, for which the melting point lay in the range of 110 to 112 °C.

In turn, `COC(=O)c1ccc(CC#N)cc1S(=O)(=O)NC(=O)Nc1nc(OC)cc(OC)n1` gave a melting point of 177 to 179 °C.

The compound `CC(=O)Nc1cc(F)ccc1C(=O)NCCN1CCC(O)(c2ccc(Cl)cc2)CC1` returned a melting point of 175 °C.

`CCOc1ccc(S(=O)(=O)N(CC(=O)NN=C2C(=O)Nc3ccc(I)cc32)c2ccccc2)cc1`: the melting point was 233 to 234 °C.

`CCCCN(c1cccc(-c2ccnc3c([N+](=O)[O-])cnn23)c1)S(=O)(=O)c1ccc(OC)cc1` gave a melting point of 189 to 190 °C.

Regarding `CCC(=O)ON=C(c1ccccc1)c1cc(C(C)(C)C)c(O)c(C(C)(C)C)c1`, the melting point lay within 132 to 134 °C.

`CC1(C)CCc2c(ccc3c2C(=O)C(Cl)=CC3=O)O1` came in with a melting point of 140 to 142 °C.

As to `CN(C)Cc1cccc(-c2cc(-c3ccccc3O)nc(NC(=O)c3cccs3)c2C#N)c1`, the melting point lay within 225 to 226 °C.

Regarding `NC(=O)c1ccc(-c2ccc3nnn(Cc4cc5cccnc5cc4F)c3n2)cc1F`, the melting point lay within 206 to 208 °C.

As to `Cc1ccc(C2NCCS2)cc1` (stereo unspecified), the melting point lay within 92 to 93 °C.

`O=Cc1c2ccccc2c(CO)c2ccccc12` came in with a melting point of 182 to 184 °C.

Compound `CC(=O)OCCc1cc2c(s1)CCC1CC(=O)N(c3ccc(C)cc3)N=C21` (stereo unspecified) showed a melting point of 73 to 75 °C.

Compound `N#Cc1ccn(O)c1-c1ccc(Cl)cc1` came in with a melting point of 148 to 150 °C.

Regarding `COc1cc(Nc2nccc(-c3ccc(NCCN)nc3)n2)cc(OC)c1OC`, the melting point fell in the range of 117 to 118 °C.

On to `Cc1nc2ccccn2c(=O)c1CCN1CCC(C(=O)c2ccc(F)cc2)CC1`, for which the melting point amounted to 139 °C.

Regarding `CC(C(=O)O)c1ccc(-c2ccc(F)cc2F)c(F)c1` (stereo unspecified), the melting point lay within 105 to 108 °C.

`Nc1ncc(CCN2CCN(c3ccccc3)CC2)s1` came in with a melting point of 185 to 189 °C.

In turn, `CC(C)C[C@H](NC(=O)OC(C)(C)C)[C@@H](O)CC(=O)NN1CCN(c2cccc(C(F)(F)F)c2)CC1` showed a melting point of 107 to 109 °C.

`CN(C)C=C(C#N)C#N` registered a melting point of 81 to 82 °C.

`COc1ccc(-c2c(NCC(C)c3ccccc3)c(=O)c2=O)cc1` (stereo unspecified) came in with a melting point of 215 to 216 °C.

The compound `CCCSc1ncc(CC(=O)O)n1Cc1ccccc1Cl` showed a melting point of 68 to 71 °C.

`CCC(CC)N1COCc2c1cc(C)nc2Oc1c(C)cc(C)cc1C`: the melting point was 112 to 114 °C.

The compound `CC[C@@H](c1ccccc1)N(Cc1ccc(C(N)=O)cc1)S(=O)(=O)c1ccc(Cl)cc1` returned a melting point of 158 to 159 °C.

`O=S(=O)(Nc1cccnc1Nc1ccccc1)c1ccc(Cl)cc1` yielded a melting point of 186 to 188 °C.

The compound `COC(=O)c1ccccc1C(=O)c1ccc(O)cc1` showed a melting point of 147 to 149 °C.

For `COCC(=O)N1CCN(CCc2ccc(-c3cccc(N)n3)cc2)CC1`, the melting point lay in the range of 148 to 150 °C.

As to `CNC(=O)Nc1ccc(-c2c[nH]c(=O)cn2)cc1`, the melting point is greater than 300 °C.

For `COC(=O)[C@@H]1C[C@H](C(=O)O)Nc2cc(C)cc(C)c21` (relative stereo), the melting point is 173 °C.

`CCOC(=O)N1CC2CC1CN2Cc1ccccc1` (stereo unspecified) displayed a melting point of 124 to 128 °C.

The compound `O=c1[nH]c2ccc(F)cc2s1` registered a melting point of 188 to 189 °C.

The compound `O=C1c2c(Br)cccc2-n2cnc(-c3noc(CCl)n3)c2[C@@H]2CCN12` yielded a melting point of 210 to 211 °C.

In turn, `CC(C)(C)CC(C)(C)c1ccc(O)c(-n2nc3ccccc3n2)c1` showed a melting point of 101 to 103 °C.

On to `CCOC(=O)c1c(C(F)(F)F)[nH]cc(-c2cc(OC(C)C)c(Cl)cc2F)c1=O`, for which the melting point was 118 to 119 °C.

On to `Cn1c(SC(C(=O)O)c2ccccc2)nc2ccccc21` (stereo unspecified), for which the melting point was 157 to 159 °C.
